For 17 compounds, IC50 results are on record in ChEMBL document CHEMBL2311461, “Linear and cyclic glycopeptide as HIV protease inhibitors” (Eur J Med Chem, 2013).

This assay can be described thus: Inhibition of C-south african HIV-1 protease assessed as hydrolysis of the chromogenic peptide substrate Lys-Ala-Arg-Val-Nle-p-nitro-Phe-Glu-Ala-Nle-NH2. Details: species or system Human immunodeficiency virus 1.

`CC[C@H](C)[C@@H]1NC(=O)[C@H](C)NC(=O)[C@H](CCC(=O)O)NC(=O)C[C@@H](C2O[C@@H]3OC(C)(C)O[C@@H]3[C@H]2O)NC1=O` (some centres not stated): the IC50 (as a rule, the midpoint of a concentration-inhibition curve) turned out to be 2620 nM.

For the compound `CC[C@H](C)[C@@H]1NC(=O)[C@H](C)NC(=O)C[C@@H](C2O[C@@H]3OC(C)(C)O[C@@H]3[C@H]2O)NC(=O)[C@H](CO)NC1=O` (some centres not stated), the IC50 was found to be 3000 nM.

On to `CC(C)[C@@H]1NC(=O)[C@H](Cc2ccccc2)NC(=O)C[C@@H](C2O[C@@H]3OC(C)(C)O[C@@H]3[C@H]2O)NC(=O)[C@H](C)NC1=O` (some centres not stated), for which the 50% inhibitory concentration (IC50) was found to be 961 nM.

`CC[C@H](C)[C@@H]1NC(=O)[C@H](C)NC(=O)[C@H](CCC(=O)OCc2ccccc2)NC(=O)C[C@@H](C2O[C@@H]3OC(C)(C)O[C@@H]3[C@H]2OCc2ccccc2)NC1=O` (some centres not stated): the IC50 worked out at 2500 nM.

As to `CC[C@H](C)[C@@H]1NC(=O)[C@H](C)NC(=O)C[C@@H](C2O[C@@H]3OC(C)(C)O[C@@H]3[C@H]2OCc2ccccc2)NC(=O)[C@H](COCc2ccccc2)NC1=O` (some centres not stated), the IC50 was > 10000 nM.

Consider `CC(C)[C@@H]1NC(=O)[C@H](Cc2ccccc2)NC(=O)C[C@@H](C2O[C@@H]3OC(C)(C)O[C@@H]3[C@H]2OCc2ccccc2)NC(=O)[C@H](C)NC1=O` (some centres not stated), for which the IC50 was found to be 6500 nM.

On to `CC[C@H](C)[C@H](NC(=O)[C@H](C)NC(=O)[C@H](CCC(=O)O)NC(=O)C[C@H](N)C1O[C@@H]2OC(C)(C)O[C@@H]2[C@H]1O)C(=O)O` (some centres not stated), for which the IC50 worked out at 3050 nM.

As for `CC[C@H](C)[C@H](NC(=O)[C@H](C)NC(=O)C[C@H](N)C1O[C@@H]2OC(C)(C)O[C@@H]2[C@H]1O)C(=O)N[C@@H](CO)C(=O)O` (some centres not stated), the IC50 came to 1500 nM.

For `CC(C)[C@H](NC(=O)[C@H](Cc1ccccc1)NC(=O)C[C@H](N)C1O[C@@H]2OC(C)(C)O[C@@H]2[C@H]1O)C(=O)N[C@@H](C)C(=O)O` (some centres not stated), the IC50 was found to be 1100 nM.

Turning to `CC[C@H](C)[C@H](NC(=O)[C@H](C)NC(=O)[C@H](CCC(=O)OCc1ccccc1)NC(=O)C[C@H](N)C1O[C@@H]2OC(C)(C)O[C@@H]2[C@H]1OCc1ccccc1)C(=O)O` (some centres not stated), the IC50 is 3500 nM.

Consider `CC[C@H](C)[C@H](NC(=O)[C@H](C)NC(=O)C[C@H](N)C1O[C@@H]2OC(C)(C)O[C@@H]2[C@H]1OCc1ccccc1)C(=O)N[C@@H](COCc1ccccc1)C(=O)O` (some centres not stated), for which the IC50 is > 10000 nM.

Regarding `CC(C)[C@H](NC(=O)[C@H](Cc1ccccc1)NC(=O)C[C@H](N)C1O[C@@H]2OC(C)(C)O[C@@H]2[C@H]1OCc1ccccc1)C(=O)N[C@@H](C)C(=O)O` (some centres not stated), the IC50 is 1340 nM.

As to `CC[C@H](C)[C@H](NC(=O)[C@H](C)NC(=O)[C@H](CCC(=O)OCc1ccccc1)NC(=O)C[C@H](NCc1ccccc1)C1O[C@@H]2OC(C)(C)O[C@@H]2[C@H]1OCc1ccccc1)C(=O)O` (some centres not stated), the IC50 came out at 5000 nM.

As to `CC[C@H](C)[C@H](NC(=O)[C@H](C)NC(=O)C[C@H](NCc1ccccc1)C1O[C@@H]2OC(C)(C)O[C@@H]2[C@H]1OCc1ccccc1)C(=O)N[C@@H](COCc1ccccc1)C(=O)O` (some centres not stated), the IC50 is > 10000 nM.

As for `CC(C)[C@H](NC(=O)[C@H](Cc1ccccc1)NC(=O)C[C@H](NCc1ccccc1)C1O[C@@H]2OC(C)(C)O[C@@H]2[C@H]1OCc1ccccc1)C(=O)N[C@@H](C)C(=O)O` (some centres not stated), the IC50 worked out at 2380 nM.

Consider `COC(=O)N[C@H](C(=O)N[C@@H](Cc1ccccc1)[C@@H](O)CN(Cc1ccc(-c2ccccn2)cc1)NC(=O)[C@@H](NC(=O)OC)C(C)(C)C)C(C)(C)C` [ATAZANAVIR], for which the IC50 turned out to be 4 nM.

For the compound `Cc1cccc(C)c1OCC(=O)N[C@@H](Cc1ccccc1)[C@@H](O)C[C@H](Cc1ccccc1)NC(=O)[C@H](C(C)C)N1CCCNC1=O` [LOPINAVIR], the IC50 worked out at 25 nM.
